Where a SMILES comes first, the peptide text is derived from it.

Usually logP stands for the decadic logarithm of the partition coefficient of the neutral form, usually between octanol and water. `Brc1cc(Br)c(N=C2NCCN2)c(Br)c1`: the lipophilicity (logP) is 2.54.
`ClCC1(C(Cl)Cl)C2CC(Cl)C1(C(Cl)Cl)CC2(Cl)Cl` (stereo unspecified) yielded a lipophilicity (logP) of 5.75.
For the molecule `CC(C)CC(NC(=O)C(NC(=O)C(CC(C)C)NC(=O)C(N)C(C)C)C(C)C)C(=O)O` (stereo unspecified) (H-VLVL-OH; configuration not given here), the logP was -1.23.
`O=C1CN=C(c2ccccc2F)c2cc(Br)ccc2N1` had a logP of 2.98.
With `CCNC(=S)SC`, the lipophilicity (logP) was 1.57.
`CC1CC(=O)NN=C1c1ccc(-n2cnc3c2CCCC3)cc1` (stereo unspecified) returned a logP of 2.52.
`COC1=CC(=O)c2c(c(COC(N)=O)c3n2CCC3OC(C)=O)C1=O` (stereo unspecified) returned a logP of 0.72.
For the molecule `OCCNc1ncnc2nc[nH]c12`, the log partition coefficient (logP) is -0.18.
For `CN(C)CCOC(=O)c1ccc(C(C)(C)C)cc1`, the logP turned out to be 3.94.
Regarding `C=C1CC2c3c(O)cc(CCCCC)cc3OC(C)(C)C2CC1O` (stereo unspecified), the logP amounted to 5.24.
Molecule `CCCC(=NOCC)C1=C(O)CC2(CCSCC2)OC1=O` displayed a logP of 2.9.
`COc1ccc(C2Cc3c(cccc3C(F)(F)F)N(CCN(C)C)C(=O)C2C)cc1` (stereo unspecified): the logP amounted to 5.6.
The molecule `COc1ccc(C2Cc3ccccc3N(CCN(C)C)C(=O)C2OC(C)=O)cc1` (stereo unspecified) showed a logP of 3.2.
Next, `O=C(O)CCCON=C(c1ccccc1)c1ncccn1`: 1.64.
As to `N#Cc1cccc(Cn2ccnc2)c1`, the logP came to 1.01.
Turning to `CC1CC(N)CN1c1nc2c(cc1F)c(=O)c(C(=O)O)cn2-c1ccc(F)cc1F` (stereo unspecified), the lipophilicity (logP) was -0.2.
With `CC(=O)OC1CC(OC2C(O)CC(OC3C(O)CC(OC4CCC5(C)C(CCC6C5CC(O)C5(C)C(C7=CC(=O)OC7)CCC65O)C4)OC3C)OC2C)OC(C)C1OC(C)=O` (stereo unspecified), the logP was determined as 2.59.
`COCC(O)Cn1c(Br)cnc1[N+](=O)[O-]` (stereo unspecified) gave a logP of 0.16.
Next, `CC(=O)NC1=C(Cl)C(=O)c2ccccc2C1=O`: 1.42.
In turn, `Brc1ccc2ccc3cccc4ccc1c2c34` had a logP of 5.81.
Next, `COCCOC(=O)C1=C(C)NC(C)=C(C(=O)OCCOC)C1c1cccc2c1OCO2`: 2.93.
Under `O=C1C=C(N2CCOCC2)C(=O)N1c1ccc(F)cc1` stands 1.5; under `Cc1nc2c3c(c(C(=O)N(C)C)cn2c1C)CCC(c1ccc(F)cc1)O3` (stereo unspecified), 3.5; under `CN(c1ccc2cc3ccc4c(c3nc2c1)COCN4)S(C)(=O)=O`, 1.54.
`Cc1c(C)c2occc2c2oc(=O)ccc12` yielded a logP of 2.84.
Take `COC(=O)c1[nH]cc(-c2ccc(Br)cc2)c1N1CCOCC1`: the logP was 3.8.
In turn, `O=C(O)CCCCCON=C(c1ccccc1)c1ccncn1` registered a logP of 2.66.
Consider `Cc1nn(-c2cc(CC(Cl)C(=O)O)c(Cl)cc2F)c(=O)n1C(F)F` (stereo unspecified), for which the log partition coefficient (logP) is 3.36.
The molecule `CC1OC(OC2C(C)OC(OC3C(C)OC(OC4CCC5(C)C(CCC6C5CCC5(C)C(C7=CC(=O)OC7)C(OC=O)CC65O)C4)CC3OC=O)CC2OC=O)CC(OC=O)C1OC=O` (stereo unspecified) yielded a lipophilicity (logP) of 3.16.
As to `CCNCc1ccc(C)cc1`, the lipophilicity (logP) is 2.38.
Molecule `Cc1c[nH]c(Cc2ccc(OCC(O)CNC(C)(C)C)cc2)n1` (stereo unspecified) had a log partition coefficient (logP) of 1.4.
Consider `CC(CO)CCNc1ncnc2nc[nH]c12` (stereo unspecified), for which the logP is 1.16.
In turn, `CNc1ccc2cc3ccc4c(c3nc2c1CO)COCN4S(C)(=O)=O` showed a logP of 1.2.
Molecule `O=C(Cc1ccccc1)Nc1[nH]cnc2ncnc1-2` showed a logP of 1.19.
In the case of `O=c1cc(-c2ccccc2)on1-c1ccc(Cl)cc1`, the logP amounted to 4.1.
For `COc1ccc(C2Cc3c(C(=O)OCc4ccccc4)cccc3N(CCN(C)C)C(=O)C2OC(C)=O)cc1` (stereo unspecified), the log partition coefficient (logP) came out at 5.3.
On to `COc1ccc(CCNCC(O)COc2ccc(-c3nc(CN4CCOCC4)c[nH]3)cc2)cc1OC` (stereo unspecified), for which the log partition coefficient (logP) was found to be 2.4.
As to `CC(C)CC(NC(=O)CN)C(=O)NC(CC(C)C)C(=O)NCC(=O)NC(Cc1ccccc1)C(=O)O` (stereo unspecified) (H-GLLGF-OH; configuration not given here), the logP was -0.18.
In turn, `C=CCC1C(=O)N(CCN(C)C)c2cccc(C(F)(F)F)c2CC1c1ccc(OC)cc1` (stereo unspecified) registered a lipophilicity (logP) of 6.6.
`Nc1nnnn1-c1cc(Cl)c(Cl)cc1Cl` returned a logP of 2.3.
Molecule `CN(C(=O)CO)c1c(I)c(C(=O)NCC(O)CO)c(I)c(C(=O)NCC(O)CO)c1I` (stereo unspecified) came in with a logP of -2.79.
`O=C(NC(Cc1c[nH]c2ccccc12)C(=O)O)OCC1c2ccccc2-c2ccccc21` (stereo unspecified): the logP stood at 4.93.
Turning to `Cn1c([N+](=O)[O-])cnc1-c1ccc(F)cc1`, the log partition coefficient (logP) worked out at 1.83.
Take `O=C1c2ccccc2-c2nncc(-c3ccccc3)c21`: the lipophilicity (logP) amounted to 2.8.
With `CNC(=O)Cn1cccc(O)c1=O`, the logP is -1.15.
`CC1=C2C3OC(=O)C(C)C3C(O)C(O)C2(C)C=CC1=O` (stereo unspecified) returned a logP of -0.7.
Under `CCCCNc1ccncc1S(=O)(=O)NC(=NC#N)NC(C)C` stands 1.05; under `Nc1nnnn1-c1ccccc1`, 0.69; under `CCCCN(CCCC)C1CCc2c(OC)cccc2C1C` (stereo unspecified), 5.61.
Molecule `CC1(C)C2CCC(CO)C1C2` (stereo unspecified) returned a log partition coefficient (logP) of 3.41.
`O=C(Cc1ccccc1)OC1Cc2c(O)cc(O)cc2OC1c1ccc(O)c(O)c1` (stereo unspecified) returned a logP of 3.09.
Regarding `Nc1ccc(S(=O)(=O)Nc2cc(Br)cc3[nH]ccc23)cc1`, the log partition coefficient (logP) came to 2.77.
`CC(C)CC(N)C(=O)N1CCCC1C(=O)NC(CC(C)C)C(=O)NC(CC(C)C)C(=O)O` (stereo unspecified) (H-LPLL-OH; configuration not given here) came in with a logP of -0.92.
Regarding `S=C=NCCCCCCCCc1ccccc1`, the logP was found to be 5.81.
On to `CCCCCCCCNC1=NS(=O)N=C1NCCSCc1ccc(CN(C)C)o1` (stereo unspecified), for which the log partition coefficient (logP) came out at 4.47.
In turn, `CNC(=O)Oc1ccc2c(c1)CC(c1ccc(OC)cc1)C(OC(C)=O)C(=O)N2CCN(C)C` (stereo unspecified) yielded a log partition coefficient (logP) of 2.31.
On to `CNCc1ccc(C)cc1`, for which the log partition coefficient (logP) came to 1.96.
For `COc1ccc(C2Cc3cc(OC(=O)C(C)(C)C)ccc3N(CCN(C)C)C(=O)C2OC(C)=O)cc1` (stereo unspecified), the log partition coefficient (logP) was found to be 4.9.
Under `CCCCCCCCCCCCN(C)N=Nc1ccc(C(N)=O)cc1` stands 6.58; under `Clc1cccc(CNc2[nH]cnc3ncnc2-3)c1`, 2.89; under `CCCc1nc(NCC(=O)N(C)C)nc(N2CCOCC2)n1`, 0.67.
`COc1cnc(C2=NC(C)(C(C)C)C(=O)N2)c(C(=O)O)c1` (stereo unspecified) registered a log partition coefficient (logP) of 0.61.
Next, `CC(C)(C)[N+]([O-])=Cc1cccc([N+](=O)[O-])c1`: 1.3; `NC1=NCC(CN2CCC(C(=O)c3ccccc3)CC2)O1` (stereo unspecified): 1.05.
`CC(NC(=O)C(NC(=O)C(N)Cc1ccccc1)C(C)C)C(=O)O` (stereo not drawn) (H-Phe-Val-Ala-OH; configuration not given here) gave a log partition coefficient (logP) of -2.19.
In turn, `COc1ccc(C2Cc3c(OC)cccc3N(CCN(C)C)C(=O)C2OC(C)=O)cc1` (stereo unspecified) yielded a lipophilicity (logP) of 3.9.
In turn, `CCC(C)C(N)C(=O)NC(C(=O)NC(C(=O)NC(C(=O)O)C(C)C)C(C)C)C(C)CC` (stereo unspecified) (H-IIVV-OH; configuration not given here) showed a logP of -1.41.
In the case of `CCCC1C(=O)N(CCN(C)C)c2cccc(C(F)(F)F)c2CC1c1ccc(OC)cc1` (stereo unspecified), the logP was determined as 6.9.
Next, `OCCN1CCN(CCn2nnc3ccccc32)CC1`: -0.05; `CSCCC(N)C(=O)NC(Cc1ccc(O)cc1)C(=O)O` (stereo not drawn) (H-Met-Tyr-OH; configuration not given here): -2.03.
In the case of `O=C1C(NCCO)=C(N2CC2)C(=O)C(NCCO)=C1N1CC1`, the logP is -1.47.
Under `CCNc1ccncc1S(=O)(=O)NC(=NC#N)NC(C)C` stands -0.24; under `COC(=O)C1=C(C)NC(C)=C(C(=O)OCC=Cc2ccccc2)C1c1cccc([N+](=O)[O-])c1` (stereo unspecified), 5.69; under `Cc1ccc(N2CC(N3CCOCC3)=CC2=O)cc1`, 1.4.
Next, `CCCCNC(=N)NC(=O)c1ccc(Cl)cc1`: 3.08; `OCC1OC(Oc2ccc(-c3ccccc3)cc2)C(O)C(O)C1O` (stereo unspecified): 1.79; `O=C(Cc1c(Cl)cc(Cl)cc1Cl)Oc1coc(CO)cc1=O`: 1.92.
Take `CCC(=O)[C@@]1(C)CC[C@H]2[C@@H]3CCC4=CC(=O)CCC4=C3CC[C@@]21C`: the lipophilicity (logP) was found to be 4.04.
Next, `CCCCN(C)CC(=O)Nc1c(C)cccc1C`: 2.74; `Cc1ccccc1N1CCN(CC2CN=C(N)O2)CC1` (stereo unspecified): 1.78.
For `CC(=O)Oc1coc(CBr)cc1=O`, the logP was 0.51.
Consider `CC(=O)C(=Cc1cc(O)c(O)c([N+](=O)[O-])c1)C(C)=O`, for which the logP is 1.21.
In turn, `COC(=O)c1ccc(C(=O)OC)c(N)c1` showed a logP of 2.28.
Next, `CC(C)CCCCCNc1[nH]cnc2ncnc1-2`: 4.16; `CCOP(=O)(OCC)C(C)(C)[N+]([O-])=Cc1ccccn1`: 0.68.
`Cc1oc2cc(C)c3ccc(=O)oc3c2c1C` came in with a logP of 3.36.
In turn, `O=C(Nc1ccccc1)c1ccccc1I` displayed a lipophilicity (logP) of 2.85.
Under `c1ccc(CCCCNc2[nH]cnc3ncnc2-3)cc1` stands 3.29; under `Cc1sc2c(C)cc3c(C)cc(=O)oc3c2c1C`, 4.09; under `CCC(C)C(NC(=O)C(CC(C)C)NC(=O)C(N)C(C)O)C(=O)O` (stereo not drawn) (H-Thr-Leu-Ile-OH; configuration not given here), -1.66.
Take `Clc1cc2c(cc1Cl)Oc1c(Cl)c(Cl)cc(Cl)c1O2`: the logP is 6.2.
Take `CN(c1nc2ccccc2s1)C1CCN(CCCCOc2ccc(F)cc2)CC1`: the logP came to 5.37.
`Cc1nc2c3c(c(C(=O)O)cn2c1C)CCC(c1ccccc1)O3` (stereo unspecified): the log partition coefficient (logP) was found to be 4.6.
The molecule `O=C1C=C(c2ccc(Cl)cc2)C(=O)N1c1ccc(Cl)cc1` came in with a log partition coefficient (logP) of 3.
Next, `COC(=O)C=CCn1cnc([N+](=O)[O-])n1`: 0.09; `COc1nc(N)nc(NC(C)(C)C)n1`: 1.93; `CCOC(=O)C(Cc1ccccc1)(Cc1ccccc1)S(=O)(=O)c1ccc([N+](=O)[O-])cc1`: 3.4.
`Cc1cc2c(ccc3c(C)c(C)c(=O)n(C)c32)o1` showed a logP of 3.54.
`CC(C)C(N)C(=O)NC(C(=O)O)C(C)C` (stereo not drawn) (H-Val-Val-OH; configuration not given here) yielded a logP of -2.82.
The molecule `CNc1ccncc1S(=O)(=O)NC(=NC#N)NC(C)C` gave a log partition coefficient (logP) of -0.65.
`CC(C)Nc1nc(N)nc(O)n1` came in with a logP of 1.27.

The values are drawn from the OPERA property sets (Mansouri et al. 2018).
